Assay results taken from ChEMBL document CHEMBL3585298, “Combination of 4-anilinoquinazoline and rhodanine as novel epidermal growth factor receptor tyrosine kinase inhibitors” (Bioorg Med Chem, 2015).

How the values were obtained:
HepG2 = test: Antiproliferative activity against human HepG2 cells assessed as cell growth by MTT assay; type: functional, cell-based
A549 = test: Antiproliferative activity against human A549 cells assessed as cell growth by MTT assay; type: functional, cell-based
[1] = target: Epidermal growth factor receptor (Homo sapiens, UniProt P00533); test: Inhibition of recombinant EGFR (unknown origin) assessed as inhibition of autophosphorylation after 1 hr by DELFIA/Time-resolved fluorometry
Epidermal growth factor receptor, sequence (P00533 whole entry): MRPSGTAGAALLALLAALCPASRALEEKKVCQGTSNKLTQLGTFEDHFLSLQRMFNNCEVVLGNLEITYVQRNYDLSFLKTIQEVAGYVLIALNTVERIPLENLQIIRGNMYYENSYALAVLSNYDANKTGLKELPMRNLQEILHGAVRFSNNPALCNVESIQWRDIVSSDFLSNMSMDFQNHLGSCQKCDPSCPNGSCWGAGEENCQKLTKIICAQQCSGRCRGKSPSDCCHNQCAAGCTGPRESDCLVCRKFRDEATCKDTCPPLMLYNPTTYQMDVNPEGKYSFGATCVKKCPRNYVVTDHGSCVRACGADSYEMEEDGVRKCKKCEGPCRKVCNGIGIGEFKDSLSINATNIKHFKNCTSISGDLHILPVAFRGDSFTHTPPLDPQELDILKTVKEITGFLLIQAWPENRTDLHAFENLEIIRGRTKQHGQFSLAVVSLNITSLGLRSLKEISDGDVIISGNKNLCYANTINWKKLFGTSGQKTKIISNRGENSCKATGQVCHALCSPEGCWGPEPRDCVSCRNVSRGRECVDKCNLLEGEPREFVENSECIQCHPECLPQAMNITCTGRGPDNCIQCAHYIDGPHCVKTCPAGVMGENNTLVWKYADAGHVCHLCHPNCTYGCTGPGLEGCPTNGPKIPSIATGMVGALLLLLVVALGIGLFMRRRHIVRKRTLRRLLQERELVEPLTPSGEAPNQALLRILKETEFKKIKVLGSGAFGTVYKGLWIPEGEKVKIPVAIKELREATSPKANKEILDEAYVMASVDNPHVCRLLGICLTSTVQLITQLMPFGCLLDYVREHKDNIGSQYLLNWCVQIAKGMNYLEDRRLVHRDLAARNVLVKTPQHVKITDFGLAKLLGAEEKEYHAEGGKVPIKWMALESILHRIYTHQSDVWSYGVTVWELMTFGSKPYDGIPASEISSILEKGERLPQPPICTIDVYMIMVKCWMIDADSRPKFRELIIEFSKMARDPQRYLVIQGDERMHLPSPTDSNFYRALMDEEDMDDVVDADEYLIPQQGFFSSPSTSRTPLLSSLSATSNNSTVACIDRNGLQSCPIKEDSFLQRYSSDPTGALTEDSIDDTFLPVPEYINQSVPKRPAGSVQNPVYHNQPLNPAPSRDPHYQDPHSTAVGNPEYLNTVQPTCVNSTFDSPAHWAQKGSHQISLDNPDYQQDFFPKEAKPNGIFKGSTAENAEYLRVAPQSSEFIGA

Compound | IC50 (HepG2) [µM] | IC50 (A549) [µM] | IC50 [1] [µM]
O=C1N=C(N2CCC[C@H]2C(=O)Nc2ccc3ncnc(Nc4cccc(Cl)c4)c3c2)S/C1=C/c1ccccc1F | 18.2 | 34.5 | –
O=C1N=C(N2CCC[C@H]2C(=O)Nc2ccc3ncnc(Nc4cccc(Cl)c4)c3c2)S/C1=C/c1cccs1 | 4.12 | 6.1 | 8.1
O=C1N=C(N2CCC[C@H]2C(=O)Nc2ccc3ncnc(Nc4cccc(Cl)c4)c3c2)S/C1=C/c1ccc(Br)s1 | > 50 | > 50 | 31.4
Cc1cccc(/C=C2/SC(N3CCC[C@H]3C(=O)Nc3ccc4ncnc(Nc5cccc(Cl)c5)c4c3)=NC2=O)n1 | 4.5 | 8.5 | 6.5
O=C1N=C(N2CCC[C@H]2C(=O)Nc2ccc3ncnc(Nc4cccc(Cl)c4)c3c2)S/C1=C/c1cccc(Br)n1 | 2.7 | 3.1 | 3.1
O=C1N=C(N2CCC[C@H]2C(=O)Nc2ccc3ncnc(Nc4cccc(Cl)c4)c3c2)S/C1=C/c1cccnc1Cl | 6.4 | 10.8 | 7.4
O=C1N=C(N2CCC[C@H]2C(=O)Nc2ccc3ncnc(Nc4cccc(Cl)c4)c3c2)S/C1=C/c1cccnc1 | 8.5 | 10.4 | 9.8
O=C1N=C(N2CCC[C@H]2C(=O)Nc2ccc3ncnc(Nc4cccc(Cl)c4)c3c2)S/C1=C/c1ccc2ccccc2n1 | 22.9 | > 50 | –
O=C1N=C(N2CCC[C@H]2C(=O)Nc2ccc3ncnc(Nc4cccc(Cl)c4)c3c2)S/C1=C/c1ccccc1Cl | 28.1 | > 50 | –
O=C1N=C(N2CCC[C@H]2C(=O)Nc2ccc3ncnc(Nc4cccc(Cl)c4)c3c2)S/C1=C/c1cccc(Cl)c1 | 27.6 | > 50 | –
O=C1N=C(N2CCC[C@H]2C(=O)Nc2ccc3ncnc(Nc4cccc(Cl)c4)c3c2)S/C1=C/c1ccccc1Br | 24.3 | > 50 | –
O=C1N=C(N2CCC[C@H]2C(=O)Nc2ccc3ncnc(Nc4cccc(Cl)c4)c3c2)S/C1=C/c1cccc(Br)c1 | 21.3 | > 50 | –
O=C1N=C(N2CCC[C@H]2C(=O)Nc2ccc3ncnc(Nc4cccc(Cl)c4)c3c2)S/C1=C/c1ccc(Cl)cc1 | 10.5 | 18.7 | 7.6
COc1ccccc1/C=C1/SC(N2CCC[C@H]2C(=O)Nc2ccc3ncnc(Nc4cccc(Cl)c4)c3c2)=NC1=O | 22.1 | > 50 | –
O=C1N=C(N2CCC[C@H]2C(=O)Nc2ccc3ncnc(Nc4cccc(Cl)c4)c3c2)S/C1=C/c1ccccc1[N+](=O)[O-] | 32.5 | > 50 | –
COc1ccc(/C=C2/SC(N3CCC[C@H]3C(=O)Nc3ccc4ncnc(Nc5cccc(Cl)c5)c4c3)=NC2=O)cc1 | 19 | 31.7 | –
O=C1N=C(N2CCC[C@H]2C(=O)Nc2ccc3ncnc(Nc4cccc(Cl)c4)c3c2)S/C1=C/c1ccc(-c2ccccc2)cc1 | 15.4 | 24.2 | 13.2
